# Results taken from US8933195B2, “Histone deacetylase inhibitors and synthetic method thereof and use thereof in manufacture of medicaments” (Nanjing Yoko Biomedical R & D Ltd., priority 2011, dated 2015).
# Legend:
# HDAC7 = target: T1, HDAC7 (Homo sapiens, UniProt Q8WUI4); experiment: Measurement of biochemical activities of HDAC (fluorescently-labeled acetylated lysine substrate)
# T1 sequence (Q8WUI4 1-952): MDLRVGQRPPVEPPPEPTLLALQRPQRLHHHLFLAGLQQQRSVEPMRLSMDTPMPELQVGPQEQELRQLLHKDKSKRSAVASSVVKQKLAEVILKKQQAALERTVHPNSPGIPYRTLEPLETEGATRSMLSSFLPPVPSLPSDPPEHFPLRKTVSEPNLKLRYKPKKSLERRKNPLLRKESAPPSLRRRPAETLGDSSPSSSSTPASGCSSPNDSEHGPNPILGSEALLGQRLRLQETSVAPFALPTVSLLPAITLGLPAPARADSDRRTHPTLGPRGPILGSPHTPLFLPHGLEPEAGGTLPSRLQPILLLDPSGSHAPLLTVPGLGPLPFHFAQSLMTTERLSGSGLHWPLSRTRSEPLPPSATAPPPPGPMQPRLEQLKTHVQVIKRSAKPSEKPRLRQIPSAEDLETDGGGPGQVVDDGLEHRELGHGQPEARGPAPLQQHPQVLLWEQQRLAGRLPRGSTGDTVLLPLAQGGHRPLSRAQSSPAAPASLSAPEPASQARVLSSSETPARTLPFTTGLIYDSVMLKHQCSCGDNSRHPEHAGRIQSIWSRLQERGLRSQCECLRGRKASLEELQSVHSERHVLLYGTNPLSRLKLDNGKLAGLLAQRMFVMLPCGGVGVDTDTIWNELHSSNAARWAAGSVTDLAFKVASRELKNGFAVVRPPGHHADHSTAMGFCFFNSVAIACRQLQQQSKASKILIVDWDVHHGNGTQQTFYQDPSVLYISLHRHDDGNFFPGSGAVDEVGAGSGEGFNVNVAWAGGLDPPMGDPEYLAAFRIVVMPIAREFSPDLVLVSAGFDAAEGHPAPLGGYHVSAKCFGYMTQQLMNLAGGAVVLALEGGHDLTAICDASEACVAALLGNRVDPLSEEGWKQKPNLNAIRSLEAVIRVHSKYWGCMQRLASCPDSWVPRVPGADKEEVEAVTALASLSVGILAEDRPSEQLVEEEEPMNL
# Procedure: (§1) 1. Measurement principles: the measurement of biochemical activities of compounds is determined according to the degree of the compounds inhibiting the deacylation of HDAC enzyme. After the fluorescently-labeled substrate containing acetylated lysine side chain reacts with the HDAC enzyme, the fluorogenic substrate is deacetylated. After the deacetylated fluorescently-labeled substrate is cracked by the enzyme, a fluorescent substance is released. The fluorescent substance generates emitting light of 460 nm under the excitation of light of 360 nm.
# (§2) 2. Detailed steps: the substrate of HDAC is diluted to […] (the reaction concentration is […]) with a reaction buffer. HDAC enzyme is diluted to a proper concentration. The compounds to be detected in different concentrations are added. The mixture reacts for 30 min at 37. Then the developer with the same volume and twice concentration of the substrate is added into the mixture. The mixture is incubated for 15 min at room temperature. Finally, the reading is measured with a micro plate scanner. The excitation light is 360 nm, the emitting light is 460 nm, and the data is processed with Prime 4 software.
# HDAC1 = HDAC1 (Homo sapiens, UniProt Q13547); experiment: as above; details: read-out: IC50 HDAC1
# Chain of HDAC1 (Q13547 whole entry, species assumed): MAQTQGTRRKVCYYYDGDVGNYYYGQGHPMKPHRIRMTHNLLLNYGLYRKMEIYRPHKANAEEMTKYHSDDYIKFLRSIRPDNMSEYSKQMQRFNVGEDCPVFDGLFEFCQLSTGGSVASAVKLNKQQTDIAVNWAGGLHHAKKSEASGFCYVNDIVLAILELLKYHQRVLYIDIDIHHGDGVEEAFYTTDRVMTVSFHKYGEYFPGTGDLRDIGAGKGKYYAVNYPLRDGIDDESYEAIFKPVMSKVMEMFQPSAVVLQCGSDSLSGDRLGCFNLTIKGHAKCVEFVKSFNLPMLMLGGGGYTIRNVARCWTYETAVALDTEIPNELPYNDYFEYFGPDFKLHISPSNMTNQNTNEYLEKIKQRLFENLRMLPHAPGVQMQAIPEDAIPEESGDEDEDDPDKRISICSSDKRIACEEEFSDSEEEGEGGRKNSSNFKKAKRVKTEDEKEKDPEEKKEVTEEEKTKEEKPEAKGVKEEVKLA
# Procedure: as §1, §2
# [1] = test system: Hela (human cervical cancer cells); experiment: MTT cancer cell growth inhibition; format: cell-based; details: 72 h
# Text: (§3) 1. Experimental principles: the inhibition of cancer cell growth with compounds is detected by an MTT method. The principle of the MTT method is as follows: yellow thiazolyl blue may penetrate through cell membranes and enter into cells, succinate dehydrogenase in living cell mitochondria may reduce exogenous MTT into water-insoluble ianthinus acicular Formazan crystals which deposit in the cells, the crystals can be dissolved with dimethyl sulfoxide (DMSO), the optical density of the crystals is detected with an enzyme-linked immunometric meter at the wavelength of 490 nm/570 nm, and the number of cells can be indirectly reflected.
# (§4) 2. Experimental materials: the used cancer cell lines are Hela (human cervical cancer cells), MCF-7 (human breast cancer cells), BGC-823 (human gastric cancer cells), A549 (human lung cancer cells), HT1080 (human fibrosarcoma cells), A431 (human epidermal squamous cell carcinoma cells), HUVEC (human umbilical vein endothelial cells), DU145 (human prostate cancer cells), K562 (human leukemia cells), U937 (human leukemia cells), Pac-1 (human pancreatic cancer cells), and MOLT-4 (human acute lymphoblastic leukemia cells), which are cultured with a DMEM+10% FBS culture medium or a 1640+10% FBS culture medium, respectively.
# (§5) Experimental groups: 190 μl cell suspension+10 μl pharmaceuticals in different concentrations (the final concentration is 10^−5-10^−10M)
# (§6) Negative control group: 190 μl cell suspension+10 μl 2% DMSO (the final concentration of DMSO is 0.1%)
# (§7) a) Cells are inoculated on a 96-pore plate, with 1500 cells and 190 μl for each hole, and cultured overnight in a 5% CO2 incubator at 37.
# (§8) b) 10 μl of different pharmaceuticals is added into each hole the next day, with the final concentration of the pharmaceuticals of 10^−5-10^−10M and three parallel holes, and incubated for 72 h in a 5% CO2 incubator at 37.
# (§9) c) 20 μl of 5 mg/mL MTT is added into each hole, and incubated for 4 h in a 5% CO2 incubator at 37.
# (§10) d) Supernatant is removed. 100 μl of DMSO is added into each hole and vibrated.
# (§11) e) The reading is 570 nm. The cell survival rate is calculated.
# [2] = test system: U937 (human leukemia cells); experiment: MTT cancer cell growth inhibition; format: cell-based; details: U-937, 72 h
# Text: as §3, §4, §5, §6, §7, §8, §9, §10, §11
# PANC-1 = experiment: MTT cancer cell growth inhibition; format: cell-based; details: Homo sapiens, 72 h
# Text: as §3, §4, §5, §6, §7, §8, §9, §10, §11
# [3] = test system: MOLT-4 (human acute lymphoblastic leukemia cells); experiment: MTT cancer cell growth inhibition; format: cell-based; details: 72 h
# Text: as §3, §4, §5, §6, §7, §8, §9, §10, §11
# [4] = test system: BGC-823 (human gastric cancer cells); experiment: MTT cancer cell growth inhibition; format: cell-based; details: 72 h, read-out: GI50 BGC823
# Text: as §3, §4, §5, §6, §7, §8, §9, §10, §11
# [5] = test system: HT1080 (human fibrosarcoma cells); experiment: MTT cancer cell growth inhibition; format: cell-based; details: HT-1080, 72 h
# Text: as §3, §4, §5, §6, §7, §8, §9, §10, §11
# [6] = test system: DU145 (human prostate cancer cells); experiment: MTT cancer cell growth inhibition; format: cell-based; details: DU-145, 72 h
# Text: as §3, §4, §5, §6, §7, §8, §9, §10, §11
# [7] = test system: MCF-7 (human breast cancer cells); experiment: MTT cancer cell growth inhibition; format: cell-based; details: MCF7, 72 h
# Text: as §3, §4, §5, §6, §7, §8, §9, §10, §11
# [8] = test system: A549 (human lung cancer cells); experiment: MTT cancer cell growth inhibition; format: cell-based; details: 72 h
# Text: as §3, §4, §5, §6, §7, §8, §9, §10, §11
# Incap = experiment: MTT cancer cell growth inhibition; format: cell-based; details: 72 h
IC50 HDAC7 (HDAC7),IC50 (HDAC1) [µM],GI50 [1] [nM],GI50 [2] [nM],GI50 (PANC-1) [nM],GI50 [3] [nM],GI50 [4] [nM],GI50 [5] [nM],GI50 [6] [nM],GI50 [7] [nM],GI50 [8] [nM],GI50 (Incap) [nM],SMILES
no activity,< 10,1060,650,10,30,7120,3030,140,2550,4660,1020,C/C=C1\NC(=O)c2csc(n2)[C@H](Cc2ccccc2)NC(=O)C[C@@H](/C=C/CCSC(=O)CCCCCCC)OC(=O)[C@H](C(C)C)NC1=O [Compound 4-3]
no activity,< 10,73500,2650,680,400,4600,41000,1600,59600,15600,900,C/C=C1\NC(=O)c2csc(n2)CNC(=O)C[C@@H](/C=C/CCSC(C)=O)OC(=O)[C@H](C(C)C)NC1=O [Compound 6-2]
no activity,< 10,50,5,600,10,50,40,3,50,30,30,C/C=C1\NC(=O)c2csc(n2)CNC(=O)C[C@@H](/C=C/CCSC(=O)CCCCCCC)OC(=O)[C@H](Cc2cccc3ccccc23)NC1=O [Compound 1-9]
no activity,< 0.1,200,1300,2060,100,5000,4100,50,500,900,2010,C/C=C1\NC(=O)c2coc(n2)CNC(=O)C[C@@H](/C=C/CCSC(=O)CCCCCCC)OC(=O)[C@H](C(C)C)NC1=O [Compound 2-1]
no activity,< 10,2000,100,3000,1000,100,1000,100,800,600,600,C/C=C1\NC(=O)c2csc(n2)CNC(=O)C[C@@H](/C=C/CCSC(=O)CCCCCCC)OC(=O)[C@@H](C)NC1=O [Compound 1-5]
no activity,< 0.1,1230,5010,1030,2000,2120,30,4020,150,25100,1230,C/C=C1\NC(=O)c2csc(n2)[C@H](C)NC(=O)C[C@@H](/C=C/CCSC(=O)CCCCCCC)OC(=O)[C@H](C(C)C)NC1=O [Compound 4-2]
no activity,< 10,26500,1230,2650,23100,1560,40500,560,21400,2600,500,C/C=C1\NC(=O)C2N=C(CNC(=O)C[C@@H](/C=C/CCSC(=O)CCCCCCC)OC(=O)[C@H](C(C)C)NC1=O)S[C@@H]2C (stereo partly drawn) [Compound 2-3]
no activity,< 0.19,100,4,200,30,20,100,4,50,300,70,C/C=C1\NC(=O)c2csc(n2)CNC(=O)C[C@@H](/C=C/CCSC(=O)CCCCCCC)OC(=O)[C@H](CC)NC1=O [Compound 1-2]

SMILES,IC50 HDAC7 (HDAC7),IC50 (HDAC1) [µM],GI50 [1] [nM],GI50 [2] [nM],GI50 (PANC-1) [nM],GI50 [3] [nM],GI50 [4] [nM],GI50 [5] [nM],GI50 [6] [nM],GI50 [7] [nM],GI50 [8] [nM],GI50 (Incap) [nM]
C/C=C1\NC(=O)c2csc(n2)CNC(=O)C[C@@H](/C=C/CCSC(=O)CCCCCCC)OC(=O)[C@H](C(C)C)N(C)C1=O [Compound 5-2],no activity,< 10,350,20,21400,10300,1300,1050,6410,690,240,5030
